Experimental data taken from patent US6683027B2, “Herbicidal mixtures” (BASF Aktienegesellschaft, priority 2000, dated 2004).

Key:
Type in all cases: in vivo
Lolium perenne [1] = assay: greenhouse pre-emergence trial, percent damage vs untreated control 21 days after treatment; conditions: 60 g/ha, LOLPE, Example 1A
Setaria viridis [2] = assay: as above; conditions: SETVI, Example 1A
Lamium purpureum [3] = assay: as above; conditions: LAMPU, Example 1A
Setaria viridis [4] = assay: greenhouse post-emergence trial, percent damage vs untreated control 21 days after treatment; conditions: SETVI; for IPU alone (% control): Example 1B; for MCPA alone (% control): Example 4; for carfentrazone alone (% control): Example 9; for cinidon-ethyl alone (% control): Example 10
Experimental: (§1) The trials are carried out under greenhouse conditions in pre- and post-emergence applications. The plant seeds are sown in pots containing a loamy sand soil (0.5 l). The herbicides are applied as single treatments, or in a combination comprising a compound of formula I and compound selected from group (2) as defined above, before or after emergence of weeds and crop. The herbicidal performance is assessed as percent damage in comparison to the untreated control plants. The assessment is done 21 days after the treatment. Wheat and barley are treated at the 3-4 leaf stage, the broad-leaf weeds at the 2-4 leaf stage and annual grasses at the 2-3 leaf stage.

Apera spica-venti = assay: as above; conditions: APESV; for cinidon-ethyl alone (% control): Example 10; for clodinafop alone (% control): Example 12
Experimental: as §1

Papaver rhoeas [5] = assay: as above; conditions: PAPRH, Example 1B
Experimental: as §1

Stellaria media [6] = assay: as above; conditions: STEME
Experimental: as §1

Veronica persica [7] = assay: as above; conditions: VERPE, Example 1B
Experimental: as §1

Alopecurus myosuroides [8] = assay: as above; conditions: ALOMY; for IPU alone (% control): Example 1B; for MCPA alone (% control): Example 4
Experimental: as §1

Lolium perenne [9] = assay: as above; conditions: LOLPE; for MCPA alone (% control): Example 4
Experimental: as §1

Lamium purpureum [10] = assay: as above; conditions: LAMPU; for MCPA alone (% control): Example 4; for clodinafop alone (% control): Example 12
Experimental: as §1

Alopecurus myosuroides [11] = assay: greenhouse pre-emergence trial, percent damage vs untreated control 21 days after treatment; conditions: ALOMY; for JV 485 alone (% control): Example 3
Papaver rhoeas [12] = assay: as above; conditions: 60 g/ha, PAPRH, Example 1A
Galium aparine [13] = assay: as above; conditions: GALAP; for JV 485 alone (% control): Example 3
Stellaria media [14] = assay: as above; conditions: 60 g/ha, STEME, Example 1A
Veronica persica [15] = assay: as above; conditions: VERPE, Example 1A
Matricaria inodora = assay: greenhouse post-emergence trial, percent damage vs untreated control 21 days after treatment; conditions: MATIN; for carfentrazone alone (% control): Example 9; for cinidon-ethyl alone (% control): Example 10
Experimental: as §1

Galium aparine [16] = assay: as above; conditions: GALAP; for clodinafop alone (% control): Example 12
Experimental: as §1

CC(C)c1ccc(NC(=O)N(C)C)cc1 [IPU]
IPU alone (% control) (Lolium perenne [1]): 40%
IPU alone (% control) (Setaria viridis [2]; 60 g/ha): 0%
IPU alone (% control) (Setaria viridis [2]; 120 g/ha): 20%
IPU alone (% control) (Setaria viridis [2]; 240 g/ha): 65%
IPU alone (% control) (Lamium purpureum [3]; 60 g/ha): 0%
IPU alone (% control) (Lamium purpureum [3]; 120 g/ha): 15%
IPU alone (% control) (Lamium purpureum [3]; 240 g/ha): 70%
IPU alone (% control) (Setaria viridis [4]; 60 g/ha): 15%
IPU alone (% control) (Setaria viridis [4]; 120 g/ha): 40%
IPU alone (% control) (Apera spica-venti; 60 g/ha, Example 1B): 50%
IPU alone (% control) (Papaver rhoeas [5]; 60 g/ha): 0%
IPU alone (% control) (Papaver rhoeas [5]; 120 g/ha): 25%
IPU alone (% control) (Papaver rhoeas [5]; 240 g/ha): 48%
IPU alone (% control) (Stellaria media [6]; 60 g/ha, Example 1B): 25%
IPU alone (% control) (Veronica persica [7]; 60 g/ha): 15%
IPU alone (% control) (Veronica persica [7]; 240 g/ha): 5%
IPU alone (% control) (Alopecurus myosuroides [8]; 60 g/ha): 15%
IPU alone (% control) (Alopecurus myosuroides [8]; 120 g/ha): 38%
IPU alone (% control) (Lolium perenne [9]; 60 g/ha, Example 1B): 38%
IPU alone (% control) (Lamium purpureum [10]; 60 g/ha, Example 1B): 0%
IPU alone (% control) (Alopecurus myosuroides [11]; 60 g/ha, Example 1A): 43%
IPU alone (% control) (Papaver rhoeas [12]): 0%
IPU alone (% control) (Galium aparine [13]; 120 g/ha, Example 1A): 0%
IPU alone (% control) (Stellaria media [14]): 15%
IPU alone (% control) (Veronica persica [15]; 60 g/ha): 0%
IPU alone (% control) (Veronica persica [15]; 120 g/ha): 0%
IPU alone (% control) (Veronica persica [15]; 240 g/ha): 0%

CC(C)OC(=O)c1cc(-c2nn(C)c(C(F)(F)F)c2Br)c(F)cc1Cl [JV 485, isopropyl 2-chloro-4-fluoro-5-(4-bromo-1-methyl-6-trifluoromethyl-pyrazol-3-yl)-benzoate, reference compound]
JV 485 alone (% control) (Alopecurus myosuroides [11]; 30 g/ha): 10%
JV 485 alone (% control) (Alopecurus myosuroides [11]; 60 g/ha): 25%
JV 485 alone (% control) (Alopecurus myosuroides [11]; 120 g/ha): 65%
JV 485 alone (% control) (Galium aparine [13]; 60 g/ha): 0%
JV 485 alone (% control) (Galium aparine [13]; 120 g/ha): 63%

Cc1cc(Cl)ccc1OCC(=O)O [MCPA, reference compound]
MCPA alone (% control) (Setaria viridis [4]; 120 g/ha): 25%
MCPA alone (% control) (Setaria viridis [4]; 240 g/ha): 43%
MCPA alone (% control) (Apera spica-venti; 240 g/ha, Example 4): 0%
MCPA alone (% control) (Stellaria media [6]; 480 g/ha, Example 4): 65%
MCPA alone (% control) (Alopecurus myosuroides [8]; 120 g/ha): 0%
MCPA alone (% control) (Alopecurus myosuroides [8]; 240 g/ha): 0%
MCPA alone (% control) (Alopecurus myosuroides [8]; 480 g/ha): 0%
MCPA alone (% control) (Lolium perenne [9]; 120 g/ha): 0%
MCPA alone (% control) (Lolium perenne [9]; 240 g/ha): 10%
MCPA alone (% control) (Lamium purpureum [10]; 120 g/ha): 0%
MCPA alone (% control) (Lamium purpureum [10]; 240 g/ha): 0%
MCPA alone (% control) (Lamium purpureum [10]; 480 g/ha): 13%

Cc1nn(-c2cc(CC(Cl)C(=O)O)c(Cl)cc2F)c(=O)n1C(F)F (centres unmarked) [carfentrazone, reference compound]
carfentrazone alone (% control) (Setaria viridis [4]; 1.88 g/ha): 0%
carfentrazone alone (% control) (Setaria viridis [4]; 15 g/ha): 0%
carfentrazone alone (% control) (Stellaria media [6]; 1.88 g/ha, Example 9): 0%
carfentrazone alone (% control) (Matricaria inodora; 1.88 g/ha): 0%
carfentrazone alone (% control) (Matricaria inodora; 15 g/ha): 48%

CCOC(=O)C(Cl)=Cc1cc(N2C(=O)C3=C(CCCC3)C2=O)ccc1Cl [cinidon-ethyl, reference compound]
cinidon-ethyl alone (% control) (Setaria viridis [4]; 25 g/ha): 0%
cinidon-ethyl alone (% control) (Setaria viridis [4]; 50 g/ha): 0%
cinidon-ethyl alone (% control) (Apera spica-venti; 25 g/ha): 0%
cinidon-ethyl alone (% control) (Apera spica-venti; 50 g/ha): 0%
cinidon-ethyl alone (% control) (Galium aparine [16]; 25 g/ha, Example 10): 20%
cinidon-ethyl alone (% control) (Matricaria inodora; 12.5 g/ha): 53%
cinidon-ethyl alone (% control) (Matricaria inodora; 25 g/ha): 68%

C[C@@H](Oc1ccc(Oc2ncc(Cl)cc2F)cc1)C(=O)O [clodinafop, reference compound]
clodinafop alone (% control) (Apera spica-venti; 15 g/ha): 0%
clodinafop alone (% control) (Apera spica-venti; 30 g/ha): 15%
clodinafop alone (% control) (Alopecurus myosuroides [8]; 7.5 g/ha, Example 12): 10%
clodinafop alone (% control) (Galium aparine [16]; 7.5 g/ha): 0%
clodinafop alone (% control) (Galium aparine [16]; 15 g/ha): 0%
clodinafop alone (% control) (Galium aparine [16]; 30 g/ha): 0%
clodinafop alone (% control) (Lolium perenne [9]; 15 g/ha, Example 12): 65%
clodinafop alone (% control) (Lamium purpureum [10]; 7.5 g/ha): 0%
clodinafop alone (% control) (Lamium purpureum [10]; 15 g/ha): 0%
